Assay results taken from publication PMC4147343, “Icotinib antagonizes ABCG2-mediated multidrug resistance, but not the pemetrexed resistance mediated by thymidylate synthase and ABCG2” (Oncotarget, 2014).
Residue numbers refer to the chain shown, from its start. pIC50: −log10 of the molar value.

Experiments:
ABCG2 [1] = biological target: T1, ABCG2 (Homo sapiens, UniProt Q9UNQ0); test: competition of […]-IAAP photoaffinity labeling in crude membranes; also ATPase stimulation ([…] of maximum at […]); type: binding
T1 construct: wild-type ABCG2 in crude membranes of MCF-7 FLV1000 cells
T1 sequence (Q9UNQ0 1-655): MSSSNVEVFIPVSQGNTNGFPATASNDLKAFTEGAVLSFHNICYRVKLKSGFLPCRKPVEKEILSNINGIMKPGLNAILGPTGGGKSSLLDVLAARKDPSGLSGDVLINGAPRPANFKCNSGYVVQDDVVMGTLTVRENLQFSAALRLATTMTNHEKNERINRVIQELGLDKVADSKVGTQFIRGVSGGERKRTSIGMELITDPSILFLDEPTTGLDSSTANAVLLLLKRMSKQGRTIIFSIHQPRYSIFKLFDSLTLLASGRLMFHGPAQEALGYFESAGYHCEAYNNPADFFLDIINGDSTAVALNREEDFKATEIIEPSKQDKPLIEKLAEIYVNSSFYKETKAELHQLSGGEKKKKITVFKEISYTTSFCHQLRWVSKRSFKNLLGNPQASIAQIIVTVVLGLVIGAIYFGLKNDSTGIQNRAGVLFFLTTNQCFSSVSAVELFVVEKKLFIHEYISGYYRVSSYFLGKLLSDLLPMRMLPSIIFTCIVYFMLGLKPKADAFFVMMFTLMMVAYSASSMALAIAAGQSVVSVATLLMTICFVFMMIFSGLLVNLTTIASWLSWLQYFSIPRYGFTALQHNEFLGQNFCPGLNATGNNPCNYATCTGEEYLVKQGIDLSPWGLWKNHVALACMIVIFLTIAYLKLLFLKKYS

ABCG2 [2] = biological target: T2, ABCG2 (Homo sapiens, UniProt Q9UNQ0, R482G); test: [3H]-mitoxantrone accumulation in transfected cells ([…]); type: cell-based
T2 construct: full-length ABCG2 in transfected HEK293 cells (ABCG2-482-G2)
T2 sequence (Q9UNQ0 1-655 R482G): T1 sequence (Q9UNQ0 1-655) with R482G

Q: With C#Cc1cccc(Nc2ncnc3cc4c(cc23)OCCOCCOCCO4)c1 [Icotinib] as the molecule, how does the pIC50 (ABCG2 [1]) read?
A: The pIC50 was 5.79.

Q: What about the “[3H]-mitoxantrone accumulation in transfected cells (1.0 and 5.0 μM)” value (ABCG2 [2]) of the same molecule?
A: Its value is “significantly increased intracellular accumulation of [^3H]-MX in both the NCI-H460 and NCI-H460/MX20 cells, as well as the ABCG2-482-R2, ABCG2-482-G2”.
